Assays:
Format in all cases: cell-based
[1] = molecular target: T1, CDK2 (Homo sapiens, UniProt P24941); assay: NanoBRET CDK2 engagement assay; design: expressed in transfected cells; conditions: OVCAR3 cells with stable CDK2-Luciferase vector, 24 hours treatment
Description: OVCAR3 cells with stable transfection of CDK2-Luciferase vector were seeded into 96-well plate at a density of 20,000 cells per well, 50 μL Opti-MEM medium supplemented with 1% FBS. Following morning, cells were treated with compounds of the disclosure, with starting concentration at 3 μM and ½ log dilution down to 0.3 nM for 24 hours at 37° C. DMSO treatment serves as control. Compound engagement was then measured using NanoBRE™ Kinase Kit from Promega (Part Number: CS1810C122, NanoBRET™ TE Kinase Kit #10, 1K) following manufacturer's instruction. For 24 hours treatment, tracer was added only for the last 2 hours. Briefly, 2.5 μL of complete 20× NanoBRET Tracer was added to the cells in suspension. Immediately prior to BRET measurements, prepare 3× Complete NanoBRET® Nano-Glo® Substrate in Opti-MEM without serum and phenol red. Without any delay, 25 μL per well of 3× Complete NanoBRET™ Nano-Glo® Substrate for a 96-well plate was added and mixed well. Signal was then read on a CLARIOstar® plate reader (measure donor emission (e.g., 450 nm) and acceptor emission (e.g., 610 nm or 630 nm) using a NanoBRET™-compatible luminometer. Target engagement was calculated with DMSO treatment as 100% signal, and IC50 was calculated by GraphPad Prism 9.

[2] = molecular target: T1, CDK2; assay: CDK2 HTRF assay (cellular endogenous CDK2 level); design: High-Throughput Measurement of Cellular Endogenous CDK2; endogenous in cells; host or cells: OVCAR3; conditions: OVCAR-3; OVCAR3 cells, 24 hours, 0.3 to 10,000 nM; read-out: max degradation of CDK2
Description: Effects of compounds on cellular CDK2 level can be monitored by a high-throughput HTRF assay or traditional Western Blot assay.
To determine half maximal degradation concentration (DC50) values of compounds, cellular CDK2 level was measured in 96-well format using HTRF total CDK2 cellular kit (Cat #64CDK2TPEG) from Cisbio.
On Day 1, OVCAR3 cells were seeded into 96-well tissue-culture treated plates at 20,000 cells/well in 200 μL and incubated overnight at 37° C. in CO2 atmosphere. On Day 2 cells were treated with compounds at concentration ranging from 0.3 to 10,000 nM using HP D300 digital dispenser. 24 hours after compound treatment, cell culture media was removed by flicking the plate and tapping the plate against clean paper towel. Immediately 30 μL 1× lysis buffer was supplemented from the kit and the plate was incubated at room temperature on shaker for 30 min. After homogenization by pipetting up and down, 8 μL cell lysate from 96-well cell culture plate was transferred to 384-well small volume white detection plate. 2 μL premixed detection solution was added and the plate was covered with sealer. To prepare the detection solution, d2 conjugated-CDK2 antibody and Eu-cryptate conjugated CDK2 antibody were diluted into detection buffer following manufacturer's instruction. Detection plates were incubated overnight at room temperature and read on ClarioStar (BMG Labtech) in TR-FRET mode (665 nM and 620 nM). The TR-FRET ratio (665 nM/620 nM) was plotted against the compound concentration and normalized to DMSO controls. Half maximal degradation concentration (DC50) values were calculated with a four-parameter logistic fit using GraphPad Prism (version 8; La Jolla, CA). FIG. 1 provides a dose-response curve of Compound 1 in Compound Table I in cellular CDK2 HTRF assay. IC50 in FIG. 1 is the same as DC50. Compounds 1, 13, 16, 22, 23, 28, 34, 35, 36, 37, 38, 39, 42, 48, 50, 51, 53, 54, 55, 56, 57, 58, 59, 60, 61, 62, 63, 65, 66, 68, 69, 70 were tested and max degradation of CDK2 observed was from about 35% to about 90%.

[3] = molecular target: T1, CDK2; assay: Phospho-Rb HTRF measurement in OVCAR3 cells (inhibition of CDK2); design: High-Throughput Measurement of Cellular Endogenous CDK2; endogenous in cells; host or cells: OVCAR3; conditions: pRB(S807/811) assay, 24 h compound treatment
Description: Phosphorylation of RB protein at S780 and S807/811 were measured using HTRF phospho-RB cellular kits (Cat #64RBS780PEG and 64RBS807PEG) from Cisbio.
On Day 1, OVCAR3 or KYSE520 cells were seeded into 96-well tissue-culture treated plates at 20,000 cells/well in 200 μL and incubated overnight at 37° C. in CO2 atmosphere. On Day 2, the cells were treated with test compounds at concentrations from 0.3 to 10,000 nM using HP D300 digital dispenser. Twenty-four hours after compound treatment, cell culture media was removed by flicking the plate and tapping the plate against clean paper towel. Immediately 30 μL 1× lysis buffer was supplemented from the kit and the plate was incubated at room temperature on shaker for 30 min. After homogenization by pipetting up and down, 8 μL cell lysate from 96-well cell culture plate was transferred to 384-well small volume white detection plate. 2 μL premixed detection solution was added and the plate was covered with sealer. To prepare the detection solution, d2 conjugated-phospho-RB antibody and Eu-cryptate conjugated phosphor-RB antibody were diluted into detection buffer following manufacturer's instruction. Detection plates were incubated for 4 h at room temperature and read on ClarioStar (BMG Labtech) in TR-FRET mode (665 nM and 620 nM). The TR-FRET ratio (665 nM/620 nM) was plotted against the compound concentration and normalized to DMSO controls. Half maximal inhibition concentration (IC50) values are calculated with a four-parameter logistic fit using GraphPad Prism (version 8; La Jolla, CA).

SMILES	IC50 [1]	Dmax [2]	IC50 [3]
Cn1c(=O)n(C2CCC(=O)NC2=O)c2cccc(C#CCOC3CCN(CC4CCN(S(=O)(=O)N5CCC(Nc6ncc7ccc(=O)n(C8CCCC8)c7n6)CC5)CC4)CC3)c21 (stereo not shown) [Compound 13, 3-(4-(3-((1-((1-((4-((8-cyclopentyl-7-oxo-7,8-dihydropyrido[2,3-d]pyrimidin-2-yl)amino)-piperidin-1-yl)sulfonyl)piperidin-4-yl)methyl)-piperidin-4-yl)oxy)prop-1-yn-1-yl)-3-methyl-2-oxo-2,3-dihydro-1H-benzo[d]imidazol-1-yl)-piperidine-2,6-dione]	292 nM	35 to 90%	2120 nM
Cn1c(=O)n(C2CCC(=O)NC2=O)c2cccc(CCCOC3CCN(S(=O)(=O)N4CCC(Nc5ncc6ccc(=O)n(C7CCCC7)c6n5)CC4)CC3)c21 (stereo not shown) [Compound 16, 3-(4-(3-((1-((4-((8-cyclopentyl-7-oxo-7,8-dihydropyrido[2,3-d]pyrimidin-2-yl)amino)-piperidin-1-yl)sulfonyl)piperidin-4-yl)oxy)propyl)-3-methyl-2-oxo-2,3-dihydro-1H-benzo[d]-imidazol-1-yl)piperidine-2,6-dione]	320 nM	35 to 90%	495 nM
CN(CCN(C)S(=O)(=O)N1CCC(Nc2ncc3ccc(=O)n(C4CCCC4)c3n2)CC1)Cc1ccc(N(C)c2cccc3c2C(=O)N(C2CCC(=O)NC2=O)C3=O)cc1 (stereo not shown) [Compound 22, 4-((8-cyclopentyl-7-oxo-7,8-dihydropyrido[2,3-d]-pyrimidin-2-yl)amino)-N-(2-((4-((2-(2,6-dioxopiperidin-3-yl)-1,3-dioxoisoindolin-4-yl)(methyl)amino)benzyl)(methyl)amino)ethyl)-N-methylpiperidine-1-sulfonamide]	903 nM	35 to 90%	798 nM
Cn1nc(N2CCC(=O)NC2=O)c2ccc(C3CCN(Cc4cccc(S(=O)(=O)N5CCC(Nc6ncc7ccc(=O)n(C8CCCC8)c7n6)CC5)c4)CC3)cc21 [Compound 71, 1-(6-(1-(3-((4-((8-cyclopentyl-7-oxo-7,8-dihydropyrido[2,3-d]pyrimidin-2-yl)amino)-piperidin-1-yl)sulfonyl)-benzyl)piperidin-4-yl)-1-methyl-1H-indazol-3-yl)dihydropyrimidine-2,4(1H,3H)-dione]	167 nM	–	10.3 nM
Cn1c(=O)n(C2CCC(=O)NC2=O)c2cccc(C3CCN(C4CN(c5cccc(S(=O)(=O)N6CCC(Nc7ncc8ccc(=O)n(C9CCCC9)c8n7)CC6)c5)C4)CC3)c21 (stereo not shown) [Compound 72, 3-(4-(1-(1-(3-((4-((8-cyclopentyl-7-oxo-7,8-dihydropyrido[2,3-d]pyrimidin-2-yl)amino)-piperidin-1-yl)sulfonyl)phenyl)azetidin-3-yl)piperidin-4-yl)-3-methyl-2-oxo-2,3-dihydro-1H-benzo[d]imidazol-1-yl)piperidine-2,6-dione]	425 nM	–	355 nM
O=C(COc1cccc2c1C(=O)N(C1CCC(=O)NC1=O)C2=O)NCCOCCOCCN1CCN(S(=O)(=O)N2CCC(Nc3ncc4ccc(=O)n(C5CCCC5)c4n3)CC2)CC1 (stereo not shown) [compound 2, N-(2-(2-(2-(4-((4-((8-cyclopentyl-7-oxo-7,8-dihydropyrido[2,3-d]pyrimidin-2-yl)amino)-piperidin-1-yl)sulfonyl)piperazin-1-yl)-ethoxy)ethoxy)ethyl)-2-((2-(2,6-dioxo-piperidin-3-yl)-1,3-dioxoisoindolin-4-yl)-oxy)acetamide]	1310 nM	–	1280 nM

Results, then the molecule that gave them:

IC50 [1]	Dmax [2]	IC50 [3]	SMILES
3040 nM	–	2670 nM	O=C(COc1cccc2c1C(=O)N(C1CCC(=O)NC1=O)C2=O)NCCOCCN1CCN(S(=O)(=O)N2CCC(Nc3ncc4ccc(=O)n(C5CCCC5)c4n3)CC2)CC1 (stereo not shown) [compound 3, N-(2-(2-(4-((4-((8-cyclopentyl-7-oxo-7,8-dihydropyrido[2,3-d]pyrimidin-2-yl)amino)-piperidin-1-yl)sulfonyl)piperazin-1-yl)-ethoxy)ethyl)-2-((2-(2,6-dioxopiperidin-3-yl)-1,3-dioxoisoindolin-4-yl)oxy)acetamide]
4110 nM	–	5860 nM	CN1C(=O)CCC(N2C(=O)c3cccc(OCC(=O)NCCOCCN4CCN(S(=O)(=O)N5CCC(Nc6ncc7ccc(=O)n(C8CCCC8)c7n6)CC5)CC4)c3C2=O)C1=O (stereo not shown) [compound 5, N-(2-(2-(4-((4-((8-cyclopentyl-7-oxo-7,8-dihydropyrido[2,3-d]pyrimidin-2-yl)amino)-piperidin-1-yl)sulfonyl)piperazin-1-yl)-ethoxy)ethyl)-2-((2-(1-methyl-2,6-dioxo-piperidin-3-yl)-1,3-dioxoisoindolin-4-yl)oxy)acetamide]
1670 nM	–	2250 nM	O=C(COc1cccc2c1C(=O)N(C1CCC(=O)NC1=O)C2=O)NCCOCCOCCOCCOCCN1CCN(S(=O)(=O)N2CCC(Nc3ncc4ccc(=O)n(C5CCCC5)c4n3)CC2)CC1 (stereo not shown) [compound 6, N-(14-(4-((4-((8-cyclopentyl-7-oxo-7,8-dihydro-pyrido[2,3-d]pyrimidin-2-yl)amino)-piperidin-1-yl)sulfonyl)piperazin-1-yl)-3,6,9,12-tetraoxatetradecyl)-2-((2-(2,6-dioxopiperidin-3-yl)-1,3-dioxoisoindolin-4-yl)oxy)acetamide]
99.9 nM	–	1120 nM	O=C1CCC(N2C(=O)c3ccc(N4CC(Oc5ccc(S(=O)(=O)N6CCC(Nc7ncc8ccc(=O)n(C9CCCC9)c8n7)CC6)cc5)C4)cc3C2=O)C(=O)N1 (stereo not shown) [compound 7, 5-(3-(4-((4-((8-cyclopentyl-7-oxo-7,8-dihydro-pyrido[2,3-d]pyrimidin-2-yl)amino)piperidin-1-yl)sulfonyl)phenoxy)azetidin-1-yl)-2-(2,6-dioxopiperidin-3-yl)isoindoline-1,3-dione]
257 nM	–	438 nM	O=C1CCC(N2C(=O)c3ccc(CN4CC(Oc5ccc(S(=O)(=O)N6CCC(Nc7ncc8ccc(=O)n(C9CCCC9)c8n7)CC6)cc5)C4)cc3C2=O)C(=O)N1 (stereo not shown) [compound 8, 5-((3-(4-((4-((8-cyclopentyl-7-oxo-7,8-dihydro-pyrido[2,3-d]pyrimidin-2-yl)amino)piperidin-1-yl)sulfonyl)phenoxy)azetidin-1-yl)methyl)-2-(2,6-dioxopiperidin-3-yl)isoindoline-1,3-dione]
